Test results published in US4201781A, “Substituted 7[s-oxopyrido[2,3-d]pyrimidine carboxamido acetamido]cephalosporins” (Dainippon Pharmaceutical Co., Ltd., priority 1977, dated 1980).
Like-named read-outs stand apart in the source and are kept apart here.

Key:
[1] = test system: Corynebacterium pyrogenes C-21; experiment: In vitro antibacterial activity (MIC); type: cell-based
Source text: (§1) The numerals in the table show minimum inhibitory concentrations (MIC)

[2] = test system: Enterobacter cloacae P-2540; experiment: In vitro antibacterial activity (MIC); type: cell-based
Source text: as §1

[3] = test system: Escherichia coli NIHJ JC-2; experiment: In vitro antibacterial activity (MIC); type: cell-based
Source text: as §1

[4] = test system: Escherichia coli P-5101; experiment: In vitro antibacterial activity (MIC); type: cell-based
Source text: as §1

[5] = test system: Klebsiella pneumoniae No. 13; experiment: In vitro antibacterial activity (MIC); type: cell-based
Source text: as §1

[6] = test system: Proteus mirabilis P-2381; experiment: In vitro antibacterial activity (MIC); type: cell-based; conditions: Proteus mirabilis, P2381, read-out: minimum inhibitory concentration (MIC)
Source text: as §1

[7] = test system: Proteus morganii Kono; experiment: In vitro antibacterial activity (MIC); type: cell-based; conditions: Morganella morganii, read-out: minimum inhibitory concentration (MIC)
Source text: as §1

[8] = test system: Pseudomonas aeruginosa No. 12; experiment: In vitro antibacterial activity (MIC); type: cell-based
Source text: as §1

[9] = test system: Pseudomonas aeruginosa Tsuchijima; experiment: In vitro antibacterial activity (MIC); type: cell-based; conditions: Pseudomonas aeruginosa, read-out: minimum inhibitory concentration (MIC)
Source text: as §1

[10] = test system: Salmonella enteritidis No. 1891; experiment: In vitro antibacterial activity (MIC); type: cell-based; conditions: Salmonella enterica, read-out: minimum inhibitory concentration (MIC)
Source text: as §1

[11] = test system: Salmonella typhimurium S-9; experiment: In vitro antibacterial activity (MIC); type: cell-based; conditions: Salmonella enterica, TYPHIMURIUM, read-out: minimum inhibitory concentration (MIC)
Source text: as §1

[12] = test system: Serratia marcescens IFO 3736; experiment: In vitro antibacterial activity (MIC); type: cell-based
Source text: as §1

[13] = test system: Staphylococcus aureus 209P JC-1; experiment: In vitro antibacterial activity (MIC); type: cell-based; conditions: read-out: minimum inhibitory concentration (MIC)
Source text: as §1

[14] = test system: Staphylococcus aureus No. 50774; experiment: In vitro antibacterial activity (MIC); type: cell-based
Source text: as §1

[15] = test system: Streptococcus pyrogenes 65A; experiment: In vitro antibacterial activity (MIC); type: cell-based; conditions: read-out: minimum inhibitory concentration (MIC)
Source text: as §1

[16] = test system: Escherichia coli P-140a; experiment: In vitro antibacterial activity (MIC); type: cell-based; conditions: Escherichia coli, read-out: minimum inhibitory concentration (MIC)
Source text: as §1
(§2) *Clinically isolated Cephalexinresistant strain.

[17] = test system: Shigella flexneri 2a; experiment: In vitro antibacterial activity (MIC); type: cell-based; conditions: read-out: minimum inhibitory concentration (MIC)
Source text: as §1, §2

[18] = test system: Shigella flexneri 4a P-330; experiment: In vitro antibacterial activity (MIC); type: cell-based
Source text: as §1, §2

[19] = test system: Staphylococcus aureus No. 50774; experiment: In vivo efficacy against systemic infection in mice; parameters: species or system male mice (ddY); conditions: read-out: ED50 (median effective dose)
Procedure: (§3) Compounds 1,2, A and B were each dissolved in deionized water to prepare injectable solutions having various concentrations.
(§4) Each of the injectable solutions was administered to mice infected with each of the bacteria described below under the conditions described below, and the median effective doses (ED50) obtained are shown in Table II. […]
(§5) male mice (ddY) weighing about 20 g
(1) Staphylococcus aureus No. 50774; Intravenous infection with 50 to 100 LD50 (about 5×10^8 cells/mouse) of a bacterial suspension in saline. twice, about 5 minutes and 6 hours after infection. […]
(§6) Note; The numerals in the table show ED50 (mg/kg). ED50 values
(§7) were calculated in accordance with the BehrensKaerber method (Arch. Exp.

[20] = test system: Escherichia coli P-5101; experiment: as above; parameters: species or system male mice (ddY); conditions: read-out: ED50 (median effective dose)
Procedure: as §3
Each of the injectable solutions was administered to mice infected with each of the bacteria described below under the conditions described below, and the median effective doses (ED50) obtained are shown in Table II.
as §5
(2) Escherichia coli P-5101; Intraperitoneal infection with 50 to 100 LD50 (about 9×10^6 cells/mouse) of a bacterial suspension in trypto-soy broth with 4% mucin.
twice, about 5 minutes and 6 hours after infection.
as §6, §7

[21] = test system: Pseudomonas aeruginosa No. 12; experiment: as above; parameters: species or system male mice (ddY); conditions: read-out: ED50 (median effective dose)
Procedure: as §3, §4, §5
(3) Pseudomonas aeruginosa No. 12; Intraperitoneal infection with 50 to 100 LD50 (about 5×10^3 cells/mouse) of a bacterial suspension in trypto-soy broth with 4% mucin. twice, about 5 minutes and 6 hours after infection. […]
as §6, §7

[22] = Acute toxicity in mice; conditions: mouse, in vivo, read-out: LD50 (median lethal dose)
Procedure: Injectable solutions containing compounds 1, 2 and compound A in various concentrations were administered to male mice (ddY) (4 to 8 in each group) in a dose of 0.1 ml per 10 g of body weight. The number of dead mice was counted after a lapse of 7 days, and the value of median lethal dose (LD50, mg/kg) was calculated.
Note: The LD50 values were calculated in accordance with the […]

[23] = Solubility in water; type: physicochemical; conditions: for solubility: deionized water at 25° C.
Procedure: |Solubility in deionized water at 25° C.

[24] = test system: Gram-negative and Gram-positive bacteria; experiment: Antibacterial activity (general statement)

Cn1nnnc1SCC1=C(C(=O)[O-])N2C(=O)C(NC(=O)[C@H](NC(=O)c3c[nH]c4nc(N5CCNCC5)ncc4c3=O)c3ccc(O)cc3)[C@H]2SC1.[Na+] (some centres unmarked)
MIC ([1]; Corynebacterium, C21, read-out: minimum inhibitory concentration (MIC)): 6.25 µg/mL | MIC ([2]; Enterobacter cloacae, P2540, read-out: minimum inhibitory concentration (MIC)): 3.13 µg/mL | MIC ([3]; Escherichia coli, NIHJJC2, read-out: minimum inhibitory concentration (MIC)): 1.56 µg/mL | MIC ([4]; Escherichia coli, P5101, read-out: minimum inhibitory concentration (MIC)): 0.78 µg/mL | MIC ([5]; Klebsiella pneumoniae, NO.13, read-out: minimum inhibitory concentration (MIC)): 0.78 µg/mL | MIC [6]: 12.5 µg/mL | MIC [7]: 25 µg/mL | MIC ([8]; Pseudomonas aeruginosa, NO.12, read-out: minimum inhibitory concentration (MIC)): 6.25 µg/mL | MIC [9]: 3.13 µg/mL | MIC ([10]; ENTERITIDIS): 0.78 µg/mL | MIC [11]: 0.78 µg/mL | MIC ([12]; Serratia marcescens, IFO3736, read-out: minimum inhibitory concentration (MIC)): 6.25 µg/mL | MIC ([13]; Staphylococcus aureus, 209P): 3.13 µg/mL | MIC ([14]; Staphylococcus aureus, NO.50774, read-out: minimum inhibitory concentration (MIC)): 6.25 µg/mL | MIC ([15]; Streptococcus, 65A): 0.2 µg/mL | MIC [16]: 1.56 µg/mL | MIC ([17]; Shigella flexneri, 2A): 0.78 µg/mL | MIC ([18]; Shigella flexneri, 4AP330, read-out: minimum inhibitory concentration (MIC)): 12.5 µg/mL | ED50 ([19]; NO.50774, sc, 336 h): ~7.8 mg/kg | ED50 ([20]; P5101, sc, 168 h): ~0.4 mg/kg | ED50 ([21]; NO.12, po, 168 h): > 100 mg/kg | ED50 ([21]; NO.12, sc, 168 h): 4.8 mg/kg | LD50 at 168 h ([22]; ip): ~1500 mg/kg | solubility [23]: ~0.5 mg/mL | Solubility in water (in words) ([23]; water / deionized water / aqueous medium): extremely low solubility in water | antibacterial activity (in words) [24]: superior antibacterial activity as the compound of the present invention

O=CN1CCN(c2ncc3c(=O)c(C(=O)N[C@@H](C(=O)N[C@@H]4C(=O)N5C(C(=O)O)=C(CSc6nnc(CC(=O)O)s6)CS[C@H]45)c4ccc(O)cc4)c[nH]c3n2)CC1 [Compound 2, Disodium 7-{D-α-[5,8-dihydro-2-(4-formyl-1-piperazinyl)-5-oxopyrido[2,3-d]pyrimidine-6-carboxamido]-α-p-hydroxyphenylacetamido}-3-(5-carboxylatomethyl-1,3,4-thiadiazol-2-yl)thiomethyl-3-cephem-4-carboxylate]
MIC ([1]; C21, Corynebacterium pyrogenes C-21, in vitro, read-out: minimum inhibitory concentration (MIC)): 3.13 µg/mL | MIC ([2]; P2540, Enterobacter cloacae P-2540, in vitro, read-out: minimum inhibitory concentration (MIC)): 3.13 µg/mL | MIC ([3]; NIHJJC2, Escherichia coli NIHJ JC-2, in vitro, read-out: minimum inhibitory concentration (MIC)): 0.78 µg/mL | MIC ([4]; P5101, Escherichia coli P-5101, in vitro, read-out: minimum inhibitory concentration (MIC)): 0.78 µg/mL | MIC ([5]; Klebsiella pneumoniae No. 13, in vitro, read-out: minimum inhibitory concentration (MIC)): 1.56 µg/mL | MIC [6]: 1.56 µg/mL | MIC ([7]; Proteus morganii Kono, in vitro): 3.13 µg/mL | MIC ([8]; Pseudomonas aeruginosa No. 12, in vitro, read-out: minimum inhibitory concentration (MIC)): 6.25 µg/mL | MIC [9]: 1.56 µg/mL | MIC ([10]; Salmonella enteritidis No. 1891, in vitro): 0.78 µg/mL | MIC [11]: 1.56 µg/mL | MIC ([12]; IFO3736, Serratia marcescens IFO 3736, in vitro, read-out: minimum inhibitory concentration (MIC)): 6.25 µg/mL | MIC ([13]; Staphylococcus aureus 209P JC-1, in vitro): 6.25 µg/mL | MIC ([14]; Staphylococcus aureus No. 50774, in vitro, read-out: minimum inhibitory concentration (MIC)): 6.25 µg/mL | MIC ([15]; Streptococcus pyrogenes 65A, in vitro): 0.1 µg/mL | MIC [16]: 1.56 µg/mL | MIC ([17]; Shigella flexneri 2a, clinically isolated Cephalexin-resistant strain, in vitro): 1.56 µg/mL | MIC ([18]; 4AP330, Shigella flexneri 4a P-330, clinically isolated Cephalexin-resistant strain, in vitro, read-out: minimum inhibitory concentration (MIC)): 12.5 µg/mL | ED50 ([19]; NO.50774, 336 h, mice, sc, twice about 5 minutes and 6 hours after intravenous infection, observation 14 days): 11.5 mg/kg | ED50 ([20]; P5101, 168 h, mice, sc, twice about 5 minutes and 6 hours after intraperitoneal infection, observation 7 days): 2.5 mg/kg | ED50 ([21]; NO.12, 168 h, mice, po, twice about 5 minutes and 6 hours after intraperitoneal infection, observation 7 days): > 100 mg/kg | ED50 ([21]; NO.12, 168 h, mice, sc, twice about 5 minutes and 6 hours after intraperitoneal infection, observation 7 days): 9.6 mg/kg | LD50 at 168 h ([22]; male mice (ddY), iv, after 7 days): > 2000 mg/kg | solubility [23]: ~150 mg/mL
